Consider ten molecules from ChEMBL document CHEMBL5465560, “Selectivity Literature for EUbOPEN Chemogenomic Library” (2024).

Molecules are shown by their SMILES.

The target in experiment [1] is T1, Interleukin-1 receptor-associated kinase 4 (Homo sapiens) (UniProt Q9NWZ3).
T1 sequence (whole entry): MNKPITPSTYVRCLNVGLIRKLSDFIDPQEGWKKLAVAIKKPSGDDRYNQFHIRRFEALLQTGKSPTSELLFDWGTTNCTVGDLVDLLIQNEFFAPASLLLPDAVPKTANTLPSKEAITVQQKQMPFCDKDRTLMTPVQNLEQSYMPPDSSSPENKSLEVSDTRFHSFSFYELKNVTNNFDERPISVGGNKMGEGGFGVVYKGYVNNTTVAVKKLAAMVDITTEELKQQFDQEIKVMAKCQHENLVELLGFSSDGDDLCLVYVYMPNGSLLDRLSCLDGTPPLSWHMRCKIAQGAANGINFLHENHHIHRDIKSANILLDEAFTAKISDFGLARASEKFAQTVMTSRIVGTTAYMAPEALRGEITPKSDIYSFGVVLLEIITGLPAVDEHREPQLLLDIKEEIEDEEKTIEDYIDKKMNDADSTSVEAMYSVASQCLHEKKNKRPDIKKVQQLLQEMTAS
Briefly: Selectivity interaction (Kinase panel (KiNativ target engagement assay in Jurkat cells)) EUB0001635a IRAK4. The class given is cell-based. The note with it: Selectivity number of off-targets 0.0, Selectivity number of targets 233.0, Source Knowledge https://www.sciencedirect.com/science/article/pii/S2451945619300674?via%3Dihub, at 1 µM.

The target of experiment [2] is Polycomb protein SUZ12 (Homo sapiens) (UniProt Q15022). The experiment is described as follows: Selectivity interaction (Methyltransferase screen (radiometric assays, panel of 8 PRMTs, 21 protein lysine methyltransferases, 3 DNA methyltransferases, and one RNA methyltransferase)) EUB0000271b SUZ12.
Experiment [3] has as its target T2, Serine/threonine-protein kinase D2 (Homo sapiens) (UniProt Q9BZL6).
T2 sequence (whole entry): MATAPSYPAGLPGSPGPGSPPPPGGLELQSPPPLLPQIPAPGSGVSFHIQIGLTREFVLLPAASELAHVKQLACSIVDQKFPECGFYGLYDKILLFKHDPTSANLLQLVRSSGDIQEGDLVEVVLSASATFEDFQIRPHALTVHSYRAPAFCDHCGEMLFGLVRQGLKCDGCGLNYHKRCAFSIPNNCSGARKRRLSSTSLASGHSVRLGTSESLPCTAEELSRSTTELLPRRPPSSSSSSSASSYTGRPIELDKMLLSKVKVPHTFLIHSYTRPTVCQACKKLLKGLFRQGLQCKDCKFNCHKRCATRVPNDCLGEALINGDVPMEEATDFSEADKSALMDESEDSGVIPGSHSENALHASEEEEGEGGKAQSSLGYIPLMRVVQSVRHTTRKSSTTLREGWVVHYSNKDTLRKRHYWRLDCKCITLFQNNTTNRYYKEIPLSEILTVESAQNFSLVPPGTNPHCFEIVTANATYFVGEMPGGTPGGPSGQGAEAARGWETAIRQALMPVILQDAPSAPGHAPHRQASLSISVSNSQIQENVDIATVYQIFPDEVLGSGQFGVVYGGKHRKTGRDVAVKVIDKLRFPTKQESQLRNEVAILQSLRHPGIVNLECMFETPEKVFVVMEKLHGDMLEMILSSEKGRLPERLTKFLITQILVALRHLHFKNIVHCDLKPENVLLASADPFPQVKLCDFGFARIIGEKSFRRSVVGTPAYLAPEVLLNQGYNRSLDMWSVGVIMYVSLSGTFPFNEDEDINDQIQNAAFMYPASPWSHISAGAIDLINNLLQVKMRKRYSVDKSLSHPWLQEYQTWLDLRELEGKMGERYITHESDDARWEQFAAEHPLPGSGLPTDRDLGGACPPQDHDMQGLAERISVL
Particulars: at 10 µM.

The target in experiment [4] is Tyrosine-protein kinase Yes (Homo sapiens) (UniProt P07947). Particulars: at 10 µM.
Experiment [5] deals with MAP/microtubule affinity-regulating kinase 3 (Homo sapiens) (UniProt P27448). The experiment is described as follows: Selectivity interaction (KinomeScan (DiscoverX)) EUB0000666a MARK3. The note with it: at 10 µM.
Experiment [6] concerns the target T3, Serine/threonine-protein kinase BRSK1 (Homo sapiens) (UniProt Q8TDC3).
T3 sequence (whole entry): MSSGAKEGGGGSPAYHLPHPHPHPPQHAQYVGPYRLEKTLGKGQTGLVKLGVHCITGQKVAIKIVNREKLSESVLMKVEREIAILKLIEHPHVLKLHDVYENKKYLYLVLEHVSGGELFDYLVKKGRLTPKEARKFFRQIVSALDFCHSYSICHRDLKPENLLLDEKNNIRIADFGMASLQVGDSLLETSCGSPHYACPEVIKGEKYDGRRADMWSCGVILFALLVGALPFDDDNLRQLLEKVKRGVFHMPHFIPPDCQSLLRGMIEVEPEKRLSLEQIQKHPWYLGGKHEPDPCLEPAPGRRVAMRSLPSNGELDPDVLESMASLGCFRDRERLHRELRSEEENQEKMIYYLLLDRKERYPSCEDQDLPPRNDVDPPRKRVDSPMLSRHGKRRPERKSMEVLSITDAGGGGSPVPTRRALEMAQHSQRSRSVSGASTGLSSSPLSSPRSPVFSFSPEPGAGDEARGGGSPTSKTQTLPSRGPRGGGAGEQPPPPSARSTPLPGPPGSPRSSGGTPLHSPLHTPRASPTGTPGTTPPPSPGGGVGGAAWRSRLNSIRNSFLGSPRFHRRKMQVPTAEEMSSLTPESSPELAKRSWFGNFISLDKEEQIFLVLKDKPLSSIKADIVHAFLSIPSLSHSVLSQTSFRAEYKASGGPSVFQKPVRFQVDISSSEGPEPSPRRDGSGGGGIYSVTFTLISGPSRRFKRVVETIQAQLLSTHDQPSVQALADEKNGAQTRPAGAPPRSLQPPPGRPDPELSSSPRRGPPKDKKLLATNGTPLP
Briefly: Selectivity interaction (KinomeScan (DiscoverX)) EUB0001079a BRSK1. Particulars: at 1 µM.

Experiment [7] addresses Mitogen-activated protein kinase kinase kinase 1 (Homo sapiens, UniProt Q13233). Briefly: Selectivity interaction (ActivX KiNativ screen (ex vivo kinase selectivity in human PBMCs)) EUB0001619a MAP3K1. The class given is cell-based. The note with it: PBMC, at 1 µM.
For experiment [8], the target named is Serine/threonine-protein kinase PAK 2 (Homo sapiens) (UniProt Q13177). Briefly: Selectivity interaction (Kinase screening (Nanosyn)) EUB0000604a PAK2.
The target in experiment [9] is Mitogen-activated protein kinase 6 (Homo sapiens) (UniProt Q16659). The experiment is described as follows: Selectivity interaction (KinomeScan (DiscoverX)) EUB0001049a MAPK6. Particulars: at 1 µM.
The target of experiment [10] is Serine/threonine-protein kinase Chk2 (Homo sapiens) (UniProt O96017). The experiment is described as follows: Selectivity interaction (ProQinase) EUB0000171b CHEK2.
Experiment [11] addresses Serine/threonine-protein kinase 24 (Homo sapiens) (UniProt Q9Y6E0). Briefly: Selectivity interaction (ProQinase) EUB0000171b STK24.
The target of experiment [12] is Cyclin-dependent kinase-like 1 (Homo sapiens) (UniProt Q00532). Briefly: Selectivity interaction (KinomeScan (DiscoverX)) EUB0000595a CDKL1. Particulars: at 10 µM.
Sequence of Cyclin-dependent kinase-like 1 (Homo sapiens) (Q00532 whole entry): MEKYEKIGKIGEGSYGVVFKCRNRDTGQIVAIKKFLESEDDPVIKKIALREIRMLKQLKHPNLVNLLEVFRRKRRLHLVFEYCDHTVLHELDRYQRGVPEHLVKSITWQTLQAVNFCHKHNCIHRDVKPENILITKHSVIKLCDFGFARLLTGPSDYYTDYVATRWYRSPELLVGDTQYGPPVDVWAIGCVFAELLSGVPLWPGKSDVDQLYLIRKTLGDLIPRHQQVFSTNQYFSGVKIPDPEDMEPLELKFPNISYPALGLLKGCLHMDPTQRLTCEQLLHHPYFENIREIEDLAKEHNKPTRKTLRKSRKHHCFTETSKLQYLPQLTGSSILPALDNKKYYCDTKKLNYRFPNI

Sequence of Polycomb protein SUZ12 (Homo sapiens) (Q15022 whole entry): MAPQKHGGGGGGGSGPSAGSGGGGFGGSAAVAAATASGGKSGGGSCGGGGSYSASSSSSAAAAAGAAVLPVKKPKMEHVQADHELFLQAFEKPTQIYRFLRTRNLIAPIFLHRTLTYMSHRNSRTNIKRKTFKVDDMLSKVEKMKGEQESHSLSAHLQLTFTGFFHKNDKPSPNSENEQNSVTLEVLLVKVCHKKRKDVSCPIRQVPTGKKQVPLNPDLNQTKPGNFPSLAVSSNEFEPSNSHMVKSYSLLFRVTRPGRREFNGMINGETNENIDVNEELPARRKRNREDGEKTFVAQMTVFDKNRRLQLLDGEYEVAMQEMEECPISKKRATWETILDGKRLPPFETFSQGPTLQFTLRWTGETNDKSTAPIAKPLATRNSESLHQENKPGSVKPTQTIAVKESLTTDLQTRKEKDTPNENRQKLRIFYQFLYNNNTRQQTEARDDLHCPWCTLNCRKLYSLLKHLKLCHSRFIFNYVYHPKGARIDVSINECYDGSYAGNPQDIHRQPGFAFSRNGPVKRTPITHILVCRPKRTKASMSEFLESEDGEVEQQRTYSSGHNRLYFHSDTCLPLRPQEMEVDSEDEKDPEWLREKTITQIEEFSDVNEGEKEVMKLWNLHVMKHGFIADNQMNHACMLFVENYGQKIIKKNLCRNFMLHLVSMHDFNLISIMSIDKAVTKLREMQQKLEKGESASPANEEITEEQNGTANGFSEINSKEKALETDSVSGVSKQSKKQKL
Sequence of Serine/threonine-protein kinase 24 (Homo sapiens) (Q9Y6E0 whole entry, looked up): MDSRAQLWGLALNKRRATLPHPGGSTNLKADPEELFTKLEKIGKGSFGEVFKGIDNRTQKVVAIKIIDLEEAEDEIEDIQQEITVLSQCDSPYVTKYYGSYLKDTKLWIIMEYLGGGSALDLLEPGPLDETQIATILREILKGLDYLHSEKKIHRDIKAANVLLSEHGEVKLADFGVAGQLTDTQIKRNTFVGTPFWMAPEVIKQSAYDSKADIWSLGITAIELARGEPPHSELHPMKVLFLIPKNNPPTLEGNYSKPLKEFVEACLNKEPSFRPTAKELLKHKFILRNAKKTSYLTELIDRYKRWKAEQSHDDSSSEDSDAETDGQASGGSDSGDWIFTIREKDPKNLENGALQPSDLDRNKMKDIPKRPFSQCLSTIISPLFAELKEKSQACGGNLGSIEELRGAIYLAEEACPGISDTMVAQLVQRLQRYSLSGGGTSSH
Sequence of Serine/threonine-protein kinase Chk2 (Homo sapiens) (O96017 whole entry): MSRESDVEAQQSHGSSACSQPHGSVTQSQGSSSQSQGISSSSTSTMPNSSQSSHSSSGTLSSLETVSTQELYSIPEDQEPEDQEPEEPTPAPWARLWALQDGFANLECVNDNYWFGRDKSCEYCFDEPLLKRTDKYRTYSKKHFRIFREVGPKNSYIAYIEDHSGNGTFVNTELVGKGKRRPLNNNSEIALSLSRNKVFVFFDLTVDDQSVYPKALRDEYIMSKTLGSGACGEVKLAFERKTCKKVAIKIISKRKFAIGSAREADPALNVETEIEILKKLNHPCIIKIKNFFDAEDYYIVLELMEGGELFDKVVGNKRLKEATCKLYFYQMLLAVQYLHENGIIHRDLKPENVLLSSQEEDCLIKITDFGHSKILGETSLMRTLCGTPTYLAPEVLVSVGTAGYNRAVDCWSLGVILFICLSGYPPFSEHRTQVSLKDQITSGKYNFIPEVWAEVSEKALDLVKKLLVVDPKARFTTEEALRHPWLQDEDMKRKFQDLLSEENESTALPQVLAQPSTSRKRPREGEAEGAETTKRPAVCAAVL
Sequence of MAP/microtubule affinity-regulating kinase 3 (Homo sapiens) (P27448 whole entry, looked up): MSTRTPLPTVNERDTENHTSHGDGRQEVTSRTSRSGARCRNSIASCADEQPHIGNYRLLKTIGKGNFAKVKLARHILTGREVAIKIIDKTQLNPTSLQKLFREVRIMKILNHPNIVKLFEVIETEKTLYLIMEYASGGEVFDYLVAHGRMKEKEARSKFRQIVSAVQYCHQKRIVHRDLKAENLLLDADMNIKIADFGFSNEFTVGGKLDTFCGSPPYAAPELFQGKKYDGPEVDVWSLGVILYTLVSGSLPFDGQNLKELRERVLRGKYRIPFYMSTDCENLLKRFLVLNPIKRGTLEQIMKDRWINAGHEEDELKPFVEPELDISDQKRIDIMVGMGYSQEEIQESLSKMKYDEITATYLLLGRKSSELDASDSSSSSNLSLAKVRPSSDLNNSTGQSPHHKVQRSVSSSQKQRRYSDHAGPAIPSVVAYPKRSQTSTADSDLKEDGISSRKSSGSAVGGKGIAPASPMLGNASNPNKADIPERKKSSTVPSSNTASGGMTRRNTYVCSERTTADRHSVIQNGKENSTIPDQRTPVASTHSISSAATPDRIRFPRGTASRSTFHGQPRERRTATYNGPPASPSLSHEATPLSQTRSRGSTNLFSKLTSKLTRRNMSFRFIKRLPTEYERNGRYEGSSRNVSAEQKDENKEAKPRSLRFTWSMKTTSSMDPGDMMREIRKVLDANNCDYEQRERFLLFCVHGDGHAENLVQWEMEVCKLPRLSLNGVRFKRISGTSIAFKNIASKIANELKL
Sequence of Serine/threonine-protein kinase PAK 2 (Homo sapiens) (Q13177 whole entry): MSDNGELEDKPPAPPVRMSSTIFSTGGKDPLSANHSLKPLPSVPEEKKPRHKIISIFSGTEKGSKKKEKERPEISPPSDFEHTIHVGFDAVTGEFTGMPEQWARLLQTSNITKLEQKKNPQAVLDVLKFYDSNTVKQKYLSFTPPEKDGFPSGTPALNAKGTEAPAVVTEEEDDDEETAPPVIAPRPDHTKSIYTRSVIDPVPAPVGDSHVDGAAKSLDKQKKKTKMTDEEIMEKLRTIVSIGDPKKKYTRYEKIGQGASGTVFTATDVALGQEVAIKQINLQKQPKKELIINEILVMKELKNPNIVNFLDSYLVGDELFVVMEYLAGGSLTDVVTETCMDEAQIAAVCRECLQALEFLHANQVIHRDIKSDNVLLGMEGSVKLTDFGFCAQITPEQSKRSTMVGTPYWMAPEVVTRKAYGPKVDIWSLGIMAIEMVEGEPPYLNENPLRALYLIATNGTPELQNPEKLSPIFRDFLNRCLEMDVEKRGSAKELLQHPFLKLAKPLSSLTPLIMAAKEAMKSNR
Sequence of Tyrosine-protein kinase Yes (Homo sapiens) (P07947 2-543 limits assumed): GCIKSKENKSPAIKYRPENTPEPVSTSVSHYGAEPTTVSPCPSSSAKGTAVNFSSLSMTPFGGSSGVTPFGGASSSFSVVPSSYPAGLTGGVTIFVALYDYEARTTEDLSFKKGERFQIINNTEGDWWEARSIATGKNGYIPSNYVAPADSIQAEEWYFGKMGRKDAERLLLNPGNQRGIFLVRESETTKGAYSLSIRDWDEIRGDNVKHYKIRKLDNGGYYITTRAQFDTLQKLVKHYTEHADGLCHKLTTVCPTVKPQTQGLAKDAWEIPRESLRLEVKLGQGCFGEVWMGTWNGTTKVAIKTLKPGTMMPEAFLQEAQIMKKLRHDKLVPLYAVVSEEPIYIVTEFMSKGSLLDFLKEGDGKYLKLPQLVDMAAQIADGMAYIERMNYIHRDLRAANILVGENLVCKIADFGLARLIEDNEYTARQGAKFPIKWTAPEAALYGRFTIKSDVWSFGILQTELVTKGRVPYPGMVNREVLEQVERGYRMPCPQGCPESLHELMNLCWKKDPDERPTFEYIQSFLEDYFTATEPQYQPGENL
Sequence of Mitogen-activated protein kinase 6 (Homo sapiens) (Q16659 whole entry): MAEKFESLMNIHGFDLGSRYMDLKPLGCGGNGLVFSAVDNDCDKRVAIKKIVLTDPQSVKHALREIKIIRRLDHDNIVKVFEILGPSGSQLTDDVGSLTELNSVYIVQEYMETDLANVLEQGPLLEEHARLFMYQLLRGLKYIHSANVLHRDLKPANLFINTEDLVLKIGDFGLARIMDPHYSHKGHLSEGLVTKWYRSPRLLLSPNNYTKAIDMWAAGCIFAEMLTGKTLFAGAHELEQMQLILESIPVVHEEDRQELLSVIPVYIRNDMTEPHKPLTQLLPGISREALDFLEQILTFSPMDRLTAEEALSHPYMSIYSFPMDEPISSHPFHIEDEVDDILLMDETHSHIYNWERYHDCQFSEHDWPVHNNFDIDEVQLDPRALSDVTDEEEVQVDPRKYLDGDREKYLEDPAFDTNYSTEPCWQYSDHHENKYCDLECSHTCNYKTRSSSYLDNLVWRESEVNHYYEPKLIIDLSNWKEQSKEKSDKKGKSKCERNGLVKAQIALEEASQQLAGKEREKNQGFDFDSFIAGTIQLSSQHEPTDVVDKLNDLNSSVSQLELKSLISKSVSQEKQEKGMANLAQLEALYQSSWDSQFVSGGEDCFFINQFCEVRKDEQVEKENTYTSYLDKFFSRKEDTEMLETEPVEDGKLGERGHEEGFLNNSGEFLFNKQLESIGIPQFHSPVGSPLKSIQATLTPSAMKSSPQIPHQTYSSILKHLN

The molecule `C=CC(=O)Nc1ccc(C(=O)Nc2[nH]nc3c2CN(C(=O)N[C@H](CN(C)C)c2ccccc2)C3(C)C)cc1` displayed a % of engagement in experiment [1] of 0.4%.
Consider `Cc1cc(C)cc([C@@H]2c3cc(C)ccc3NC(=O)CN2C(=O)c2ccc(Br)s2)c1`, for which the % of activity in experiment [2] (at 1 µM) and in [2] (at 10 µM) was 101% in each case.
Turning to `Cc1cc([C@@H](C)Nc2ccccc2C(=O)O)c2nc(N3CCOCC3)cc(=O)n2c1` [AZD-6482], the % of control in experiment [3] and in experiment [4] was 100% each time.
As for `O=C(NOC[C@H](O)CO)c1ccc(F)c(F)c1Nc1ccc(I)cc1F`, the % of control in [5] stood at 91%.
In experiment [6], `Nc1cnc(N2CCc3cc(S(=O)(=O)Nc4c(F)cc(Cl)cc4F)cc(N4CCCC4=O)c32)nc1` [TP-020n] displayed a % of control of 100%.
Turning to `N#Cc1cccc(-c2c[nH]c3ncnc(N4CCOCC4)c23)c1`, the % of inhibition in experiment [7] was determined as 45%.
For `Cc1cnc(Nc2ccc(F)cc2Cl)nc1-c1c[nH]c(C(=O)N[C@H](CO)c2cccc(Cl)c2)c1`, in experiment [8], the % of inhibition is 0%.
Regarding `COc1cc(Nc2nc(C)cc(-c3cnn4nc(OC)ccc34)n2)cc(C(F)(F)F)c1`, in experiment [9], the % of control was found to be 92%.
`C=CC(=O)Nc1cccc(C(=O)Nc2ccc(Nc3cc(-c4[nH]c(SC)nc4C)ccn3)cc2)c1`: the % of control in [10] (at 1 µM) is 70%; in experiment [10] (at 5 µM) it was 36%; in [11] (at 1 µM) it was 85%; in [11] (at 5 µM) it was 89%.
Molecule `COCC(=O)NC/C=C/c1ccc2ncnc(Nc3ccc(Oc4ccc(C)nc4)c(C)c3)c2c1` [CP-724714] yielded a % of control in [12] of 69%.
